System: 252836-082-R-J2-PDC tumor spheroids, viability
Assay: Anticancer human tumor 252836-082-R-J2-PDC patient-derived head and neck squamous cell carcinoma cell line growth inhibition [PI3K]
Details: spheroids with HUVEC and MSC; for viability, T/C: stronger effect = lower value
In short: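 Viability of mixed-cell spheroids was determined after exposure to pairwise combinations, one partner being inavolisib, alpelisib, duvelisib or copanlisib. Highest tested concentration matched clinical Cmax where known and 10 microM where not, descending in half-log steps.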

[1] = curve of first compound, second compound 0.0316 µM
[2] = curve of first compound, second compound 0.1 µM
[3] = curve of first compound, second compound 0.316 µM
[4] = curve of first compound, second compound 1 µM
[5] = second compound 0.0316 µM, first compound 0.0316 µM
[6] = second compound 0.0316 µM, first compound 0.1 µM
[7] = second compound 0.0316 µM, first compound 0.316 µM
[8] = second compound 0.0316 µM, first compound 1 µM
[9] = second compound 0.0316 µM, first compound 3.16 µM
[10] = second compound 0.0316 µM, first compound 10 µM
[11] = second compound 0.1 µM, first compound 0.0316 µM
[12] = second compound 0.1 µM, first compound 0.1 µM
[13] = second compound 0.1 µM, first compound 0.316 µM
[14] = second compound 0.1 µM, first compound 1 µM
[15] = second compound 0.1 µM, first compound 3.16 µM
[16] = second compound 0.1 µM, first compound 10 µM
[17] = second compound 0.316 µM, first compound 0.0316 µM
[18] = second compound 0.316 µM, first compound 0.1 µM
[19] = second compound 0.316 µM, first compound 0.316 µM
[20] = second compound 0.316 µM, first compound 1 µM
[21] = second compound 0.316 µM, first compound 3.16 µM
[22] = second compound 0.316 µM, first compound 10 µM
[23] = second compound 1 µM, first compound 0.0316 µM
[24] = second compound 1 µM, first compound 0.1 µM
[25] = second compound 1 µM, first compound 0.316 µM
[26] = second compound 1 µM, first compound 1 µM
[27] = second compound 1 µM, first compound 3.16 µM
[28] = second compound 1 µM, first compound 10 µM
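Note: spheroids exposed to agents for seven days before readout.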
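Throughout, for viability, T/C: percent of vehicle DMSO control viability so 100% = untreated growth.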

**Q.** Which results are given for `Cn1nccc1Nc1nccc(-c2ccn(C(CO)c3ccc(Cl)c(F)c3)c(=O)c2)n1` (configuration not stated) + Cc1nc(NC(=O)N2CCCC2C(N)=O)sc1-c1ccnc(C(C)(C)C(F)(F)F)c1?
**A.** IC50 [1]: > 10 µM; IC50 [2]: > 10 µM; IC50 [3]: > 10 µM; IC50 [4]: 7.54 µM; IC50 (curve of first compound, second compound 3.16 µM): < 0.0316 µM; IC50 (curve of first compound, second compound 10 µM): < 0.0316 µM; viability, T/C [5]: 87%; viability, T/C [6]: 91%; viability, T/C [7]: 91%; viability, T/C [8]: 97.9%; viability, T/C [9]: 104%; viability, T/C [10]: 66%; viability, T/C [11]: 87.4%; viability, T/C [12]: 85.7%; viability, T/C [13]: 79.8%; viability, T/C [14]: 90.6%; viability, T/C [15]: 81.3%; viability, T/C [16]: 62.4%; viability, T/C [17]: 74.7%; viability, T/C [18]: 66.6%; viability, T/C [19]: 81.7%; viability, T/C [20]: 72.8%; viability, T/C [21]: 79.4%; viability, T/C [22]: 57.6%; viability, T/C [23]: 70.8%; viability, T/C [24]: 61.9%; viability, T/C [25]: 63.2%; viability, T/C [26]: 64.6%; viability, T/C [27]: 58%; viability, T/C [28]: 47.3%; viability, T/C (second compound 3.16 µM, first compound 0.0316 µM): 42.2%; viability, T/C (second compound 3.16 µM, first compound 0.1 µM): 46.1%; viability, T/C (second compound 3.16 µM, first compound 0.316 µM): 56.9%; viability, T/C (second compound 3.16 µM, first compound 1 µM): 45%; viability, T/C (second compound 3.16 µM, first compound 3.16 µM): 41.9%; viability, T/C (second compound 3.16 µM, first compound 10 µM): 33.5%; viability, T/C (second compound 10 µM, first compound 0.0316 µM): 34.4%; viability, T/C (second compound 10 µM, first compound 0.1 µM): 37.2%; viability, T/C (second compound 10 µM, first compound 0.316 µM): 34.3%; viability, T/C (second compound 10 µM, first compound 1 µM): 23.6%; viability, T/C (second compound 10 µM, first compound 3.16 µM): 24.5%; viability, T/C (second compound 10 µM, first compound 10 µM): 11.8%

**Q.** What does the source list for `CC(Nc1ccc2c(c1)OCCn1cc(N3C(=O)OCC3C(F)F)nc1-2)C(N)=O` (configuration not stated)?
**A.** viability, T/C (compound 0.00316 µM): 93% [middle of 8 runs]; viability, T/C (compound 0.01 µM): 96.8% [middle of 8 runs]; viability, T/C (compound 0.0316 µM): 81% [middle of 8 runs]; viability, T/C (compound 0.1 µM): 65.7% [middle of 8 runs]; viability, T/C (compound 0.316 µM): 51.8% [middle of 8 runs]; viability, T/C (compound 1 µM): 47.7% [middle of 8 runs]

**Q.** What does the source list for `CC(C)n1nc(-c2ccc3oc(N)nc3c2)c2c(N)ncnc21`?
**A.** viability, T/C (compound 0.000316 µM): 93.7% [middle of 4 runs]; viability, T/C (compound 0.001 µM): 91.8% [middle of 4 runs]; viability, T/C (compound 0.00316 µM): 87.4% [middle of 4 runs]; viability, T/C (compound 0.01 µM): 80.9% [middle of 4 runs]; viability, T/C (compound 0.0316 µM): 53.5% [middle of 4 runs]; viability, T/C (compound 0.1 µM): 23% [middle of 4 runs]; IC50 (curve of compound): 36.6 nM [middle of 4 runs]

**Q.** What does the source list for `Cn1nccc1Nc1nccc(-c2ccn(C(CO)c3ccc(Cl)c(F)c3)c(=O)c2)n1` (configuration not stated) + COc1c(OCCCN2CCOCC2)ccc2c3n(c(=NC(=O)c4cnc(N)nc4)nc12)CCN3?
**A.** IC50 (curve of first compound, second compound 0.00316 µM): > 10 µM; IC50 (curve of first compound, second compound 0.01 µM): > 10 µM; IC50 [1]: 4.37 µM; IC50 [2]: < 0.0316 µM; IC50 [3]: < 0.0316 µM; IC50 [4]: < 0.0316 µM; viability, T/C (second compound 0.00316 µM, first compound 0.0316 µM): 99.2%; viability, T/C (second compound 0.00316 µM, first compound 0.1 µM): 86.3%; viability, T/C (second compound 0.00316 µM, first compound 0.316 µM): 98%; viability, T/C (second compound 0.00316 µM, first compound 1 µM): 90%; viability, T/C (second compound 0.00316 µM, first compound 3.16 µM): 78.3%; viability, T/C (second compound 0.00316 µM, first compound 10 µM): 70.3%; viability, T/C (second compound 0.01 µM, first compound 0.0316 µM): 77.4%; viability, T/C (second compound 0.01 µM, first compound 0.1 µM): 78.3%; viability, T/C (second compound 0.01 µM, first compound 0.316 µM): 81.7%; viability, T/C (second compound 0.01 µM, first compound 1 µM): 79.1%; viability, T/C (second compound 0.01 µM, first compound 3.16 µM): 75.8%; viability, T/C (second compound 0.01 µM, first compound 10 µM): 50.2%; viability, T/C [5]: 53%; viability, T/C [6]: 65.4%; viability, T/C [7]: 56.3%; viability, T/C [8]: 56.8%; viability, T/C [9]: 57.8%; viability, T/C [10]: 31.1%; viability, T/C [11]: 40.4%; viability, T/C [12]: 33.8%; viability, T/C [13]: 38.5%; viability, T/C [14]: 34.8%; viability, T/C [15]: 31.9%; viability, T/C [16]: 19.5%; viability, T/C [17]: 15.8%; viability, T/C [18]: 14.1%; viability, T/C [19]: 15.3%; viability, T/C [20]: 10.4%; viability, T/C [21]: 7.12%; viability, T/C [22]: 4.49%; viability, T/C [23]: 4.18%; viability, T/C [24]: 4.13%; viability, T/C [25]: 3.93%; viability, T/C [26]: 1.52%; viability, T/C [27]: 1.98%; viability, T/C [28]: 0.32%

Source: PubChem BioAssay AID1963985 (Molecular Pharmacology Branch, DTP, NCI, 2024)
